The IC50 is the concentration that inhibits the measured activity by half. A higher IC50 goes with lower potency.

These results are taken from ChEMBL document CHEMBL1152045, “Synthesis of the pyrimidine analog of 4,5,6,7-tetrahydroimidazo[4,5,1-jk][1,4]benzodiazepin-2(1H)one (TIBO) potential for HIV-1 inhibition” (Bioorg Med Chem Lett, 1991).

For assay [1], the system named is MT4. The assay is described as follows: Compound was tested for its anti HIV-1 activity in MT-4 cells up to 2 uM concentration; No activity against HIV-l virus replication. Format: functional, cell-based, Homo sapiens.
The subject of assay [2] is MT4. The assay is described as follows: Compound was tested for its anti HIV-1 activity in MT-4 cells. The settings on record: Homo sapiens. It counts as functional, cell-based.

Take `CC(C)=CCN1Cc2ncnc3nc(O)n(c23)CC1C` (configuration not stated): the IC50 result with MT4 [1] was “Not Active”.

In the assay on MT4 [2], `CC(C)=CCN1Cc2cc(Cl)cc3[nH]c(=S)n(c23)C[C@@H]1C` registered an IC50 of 0.042 µM.
